Values of other authors as cited in US10245278B2 (priority 2013, dated 2019).
Like-named read-outs stand apart in the source and are kept apart here.

What was measured:
[1] = even at doses of 9 or 10 grams twice per day
[2] = menopausal women; oral 14 grams per day for 6 months
[3] = slightly hypertensive persons; oral 12 grams per day in three administrations for 4 weeks
[4] = angina pectoris or congestive heart failure; oral, at least 6 grams per day for 6 weeks
[5] = intermittent claudication; oral 8 grams twice per day for 3 weeks
[6] = male subjects; 8 grams in a single administration one or two hours before relations
[7] = heart transplant patients; 6 grams per day for several weeks

Compound | side effects [1] | muscular force [2] | arterial pressure [3] | ability to withstand physical effort [4] | walking range [5] | moderate sexual dysfunction [6] | ability to withstand physical effort [7]
N=C(N)NCCC[C@H](N)C(=O)O [arginine, L-arginine] | very few side effects | resulted in increasing muscular force | reduced the arterial pressure significantly | improves the ability to withstand physical effort | enabled their walking range to be increased | – | –
L-arginine aspartate | – | – | – | – | – | significantly improved their disorder | same result
